Data taken from article PMC11672294, “The Antipsychotic Drug Aripiprazole Suppresses Colorectal Cancer by Targeting LAMP2a to Induce RNH1/miR‐99a/mTOR‐Mediated Autophagy and Apoptosis” (Advanced Science, 2024).
Counter-ions that a name gives are not always drawn. Like-named read-outs stand apart in the source and are kept apart here.

System: HT29
Settings: 72 h, 10 µM
Summary of the method: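 Cells were exposed to drug for 72 h, then to WST-1 for 2 h at 37 °C, and absorbance was read at 450 nm as viability against DMSO treatment. In the screen, each compound was applied at 10 µM.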

[1] = relative to DMSO, Relative cell viability (%)

SMILES	Relative cell viability (%) (relative to DMSO) [%]	other results
CN(C)[C@@H]1C(O)=C(C(N)=O)C(=O)[C@@]2(O)C(O)=C3C(=O)c4c(O)ccc(Cl)c4[C@@H](O)[C@H]3C[C@@H]12 [Demeclocycline HCl]	74.85	
C[C@H](CCC(=O)O)[C@H]1CC[C@H]2[C@@H]3CC[C@@H]4C[C@H](O)CC[C@]4(C)[C@H]3C[C@H](O)[C@]12C [Deoxycholic acid]	90.6	
CC(=O)OCC(=O)[C@H]1CC[C@H]2[C@@H]3CCC4=CC(=O)CC[C@]4(C)[C@H]3CC[C@]12C [Deoxycorticosterone acetate]	81.21	
Cc1cccc(Cc2c[nH]cn2)c1C [Detomidine HCl]	118.5	
C[C@@H]1C[C@H]2[C@@H]3CCC4=CC(=O)C=C[C@]4(C)[C@@]3(F)[C@@H](O)C[C@]2(C)[C@@]1(O)C(=O)CO [Dexamethasone (DHAP)]	75.86	
Cc1cccc([C@H](C)c2cnc[nH]2)c1C [Dexmedetomidine HCl (Precedex)]	113.8	
C[C@@H](CN1CC(=O)NC(=O)C1)N1CC(=O)NC(=O)C1 [Dexrazoxane HCl (ICRF-187, ADR-529)]	75.86	
OC[C@H]1OC(O)[C@H](O)[C@@H](O)[C@@H]1O (stereo partly drawn) [Dextrose]	126.7	
CC(=O)Oc1cccc2c1C(=O)c1c(OC(C)=O)cc(C(=O)O)cc1C2=O [Diacerein]	73.94	
N#CC(c1ccc(Cl)cc1)c1c(Cl)cc(-n2ncc(=O)[nH]c2=O)cc1Cl (stereo not drawn) [Diclazuril]	219	
O=C(O)Cc1ccccc1Nc1c(Cl)cccc1Cl [Diclofenac Diethylamine]		Relative cell viability (%) [1]: 60.68%
O=C(O)Cc1ccccc1Nc1c(Cl)cccc1Cl [Diclofenac Potassium]		Relative cell viability (%) [1]: 69.42%
O=C(O)Cc1ccccc1Nc1c(Cl)cccc1Cl [Diclofenac Sodium]		Relative cell viability (%) [1]: 111.9%
C[C@]12CCC3=C4CCC(=O)C=C4CC[C@H]3[C@@H]1CC[C@@]2(O)CC#N [Dienogest]	96.11	
CC/C(=C(/CC)c1ccc(O)cc1)c1ccc(O)cc1 [Diethylstilbestrol]	69.07	
C[C@H]1O[C@@H](O[C@H]2[C@@H](O)C[C@H](O[C@H]3[C@@H](O)C[C@H](O[C@H]4CC[C@@]5(C)[C@H](CC[C@@H]6[C@@H]5C[C@@H](O)[C@]5(C)[C@@H](C7=CC(=O)OC7)CC[C@]65O)C4)O[C@@H]3C)O[C@@H]2C)C[C@H](O)[C@@H]1O [Digoxin]	5.758	
COc1ccc([C@@H]2Sc3ccccc3N(CCN(C)C)C(=O)[C@@H]2OC(C)=O)cc1 [Diltiazem HCl]	67.8	
CCc1cnn2c(NCc3ccc[n+]([O-])c3)cc(N3CCCC[C@H]3CCO)nc12 [Dinaciclib (SCH727965)]	33.01	
OC(CCCN1CCCCC1)(c1ccccc1)c1ccccc1 [Diphenidol HCl]	59.39	
OCCN(CCO)c1nc(N2CCCCC2)c2nc(N(CCO)CCO)nc(N3CCCCC3)c2n1 [Dipyridamole]	52.54	
CC[C@H]1OC(=O)[C@H](C)[C@@H](O[C@H]2C[C@@](C)(OC)[C@@H](O)[C@H](C)O2)[C@H](C)[C@@H](O[C@@H]2O[C@H](C)C[C@H](N(C)C)[C@H]2O)[C@](C)(O)C[C@@H](C)[C@@H]2N[C@@H](COCCOC)O[C@H]([C@H]2C)[C@]1(C)O [Dirithromycin]		Relative cell viability (%) (ht29 cells): 84.85%

SMILES	Relative cell viability (%) (relative to DMSO) [%]	other results
CC(=O)O[C@@]12CO[C@@H]1C[C@H](O)[C@@]1(C)C(=O)[C@H](O)C3=C(C)[C@@H](OC(=O)[C@H](O)[C@@H](NC(=O)OC(C)(C)C)c4ccccc4)C[C@@](O)([C@@H](OC(=O)c4ccccc4)[C@H]21)C3(C)C [Docetaxel Trihydrate]	23.93	
C[C@@H]1CCO[C@H]2Cn3cc(C(=O)NCc4ccc(F)cc4F)c(=O)c(O)c3C(=O)N12 [Dolutegravir (GSK1349572)]	70.87	
CCCCCCCCCCCC[N+](C)(C)CCOc1ccccc1 [Domiphen Bromide]	82.12	
C[C@@H](O)[C@H]1C(=O)N2C(C(=O)O)=C(S[C@@H]3CN[C@H](CNS(N)(=O)=O)C3)[C@H](C)[C@H]12 [Doripenem Hydrate]	88.32	
CN1CCN(c2ccc3nc(-c4c(N)c5c(F)cccc5[nH]c4=O)[nH]c3c2)CC1 [Dovitinib (TKI258) Lactate]		Relative cell viability (%) [1]: 3.419%
CN1CCN(c2ccc3nc(-c4c(N)c5c(F)cccc5[nH]c4=O)[nH]c3c2)CC1 [Dovitinib (TKI-258) Dilactic Acid]		Relative cell viability (%) [1]: 12.62%
COc1cc2nc(N3CCN(C(=O)C4COc5ccccc5O4)CC3)nc(N)c2cc1OC (stereo not drawn) [Doxazosin Mesylate]	63.4	
C[C@H]1O[C@@H](n2cc(F)c(=O)[nH]c2=O)[C@H](O)[C@@H]1O [Doxifluridine]	150.2	
CN(C)CCOC(C)(c1ccccc1)c1ccccn1 (stereo not drawn) [Doxylamine Succinate]	83.94	
CCCCc1oc2ccc(NS(C)(=O)=O)cc2c1C(=O)c1ccc(OCCCN(CCCC)CCCC)cc1 [Dronedarone HCl]	86.05	
C[C@]12CCC(=O)C=C1[C@@H]1C[C@@H]1[C@H]1[C@@H]3[C@@H]4C[C@@H]4[C@@]4(CCC(=O)O4)[C@@]3(C)CC[C@@H]12 [Drospirenone]	86.76	
CNCC[C@H](Oc1cccc2ccccc12)c1cccs1 [Duloxetine HCl]	99.61	
CCCCOc1ccc(C(=O)CCN2CCCCC2)cc1 [Dyclonine HCl]	155.2	
CCN(c1cc(-c2ccc(CN3CCOCC3)cc2)cc(C(=O)NCc2c(C)cc(C)[nH]c2=O)c1C)C1CCOCC1 [EPZ-6438]	121.4	
CC(C)(C)c1ccc(C(=O)CCCN2CCC(OC(c3ccccc3)c3ccccc3)CC2)cc1 [Ebastine]	13.94	
CC1=NN(c2ccccc2)C(=O)C1 [Edaravone]	97.66	
CN1CCc2nc(C(=O)N[C@@H]3C[C@@H](C(=O)N(C)C)CC[C@@H]3NC(=O)C(=O)Nc3ccc(Cl)cn3)sc2C1 [Edoxaban]	95.73	
O=C1Nc2ccc(Cl)cc2[C@@](C#CC2CC2)(C(F)(F)F)O1 [Efavirenz]	72.65	
COc1cc2c(cc1OC)CN(CCc1ccc(NC(=O)c3cccc4c(=O)c5cccc(OC)c5[nH]c34)cc1)CC2 [Elacridar (GF120918)]	48.29	
CCCCCCCC(=O)N[C@H](CN1CCCC1)[C@H](O)c1ccc2c(c1)OCCO2 [Eliglustat Tartrate]	81.62	
O=c1oc2c(O)c(O)cc3c(=O)oc4c(O)c(O)cc1c4c23 [Ellagic acid]	74.3	
